Source: patent publication US10745382B2 (BRISTOL-MYERS SQUIBB COMPANY, priority 2015, dated 2020)
pIC50: −log10 of the molar value.

Target: T1, PD-1/PD-L1 (Homo sapiens, UniProt Q9NZQ7)
T1 construct: made in house; host or cells: HEK293T
Test: PD-1/PD-L1 Homogenous Time-Resolved Fluorescence (HTRF) binding assay
Conditions: PD-L1-His 10 nM, PD-1-Ig 20 nM; value given as range class; read-out: Range or IC50
Procedure, shortened: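 Read-out is time-resolved FRET between europium cryptate-labelled anti-Ig (1 nM final) and APC-labelled anti-His (20 nM final), both dispensed onto the binding mix. Assay buffer: dPBS containing 0.1% bovine serum albumin and 0.05% Tween-20.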

T1 sequence (Q9NZQ7 with tags, fused parts or gaps): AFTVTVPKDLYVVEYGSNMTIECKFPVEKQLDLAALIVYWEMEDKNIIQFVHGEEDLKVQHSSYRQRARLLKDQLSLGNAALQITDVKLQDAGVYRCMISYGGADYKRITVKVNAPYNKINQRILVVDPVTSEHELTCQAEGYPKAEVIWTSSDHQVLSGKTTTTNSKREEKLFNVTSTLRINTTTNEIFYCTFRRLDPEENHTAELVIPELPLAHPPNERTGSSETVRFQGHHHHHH

Row | Compound | pIC50
1 | C=CC(=O)NCCNCc1cc(Cl)c(OCc2cccc(-c3cccc(OCCCN4CC[C@@H](O)C4)c3C)c2C)cc1OCc1cncc(C#N)c1 [Example 1031, (R)—N-(2-((5-chloro-2-((5-cyanopyridin-3-yl)methoxy)-4-((3′-(3-(3-hydroxypyrrolidin-1-yl)propoxy)-2,2′-dimethyl-[1,1′-biphenyl]-3-yl)methoxy)benzyl)amino)ethyl)acrylamide] | 7.00 to 8.00
2 | Cc1c(COc2cc(OCc3cncc(C(N)=O)c3)c(CN[C@H](CO)C(=O)O)cc2Cl)cccc1-c1cccc(OCCCN2CCC(O)(C(=O)O)CC2)c1 [Example 1032, (R)-1-(3-((3′-((5-((5-carbamoylpyridin-3-yl)methoxy)-4-(((1-carboxy-2-hydroxyethyl)amino)methyl)-2-chlorophenoxy)methyl)-2′-methyl-[1,1′-biphenyl]-3-yl)oxy)propyl)-4-hydroxypiperidine-4-carboxylic Acid] | 8.00 to 9.68
3 | Cc1c(COc2cc(OCc3cncc(C#N)c3)c(CN[C@H](CO)C(=O)O)cc2Cl)cccc1-c1cccc(OCCCN2CCC(O)(C(=O)O)CC2)c1 [Example 1033, (R)-1-(3-((3′-((4-(((1-carboxy-2-hydroxyethyl)amino)methyl)-2-chloro-5-((5-cyanopyridin-3-yl)methoxy)phenoxy)methyl)-2′-methyl-[1,1′-biphenyl]-3-yl)oxy)propyl)-4-hydroxypiperidine-4-carboxylic Acid] | 8.00 to 9.68
4 | C=CC(=O)NCCNCc1cc(Cl)c(OCc2cccc(-c3cccc(OCCCN4CC[C@@H](O)C4)c3C)c2C)cc1OCc1cncc(S(C)(=O)=O)c1 [Example 1034, (R)—N-(2-((5-chloro-4-((3′-(3-(3-hydroxypyrrolidin-1-yl)propoxy)-2,2′-dimethyl-[1,1′-biphenyl]-3-yl)methoxy)-2-((5-(methylsulfonyl)pyridin-3-yl)methoxy)benzyl)amino)ethyl)acrylamide] | 7.00 to 8.00
5 | Cc1c(COc2cc(OCc3cncc(C(N)=O)c3)c(CN[C@H](CO)C(=O)O)cc2Cl)cccc1-c1cccc(OCCCN2CCC(O)(C(=O)O)CC2)c1C [Example 1035, (R)-1-(3-((3′-((5-((5-carbamoylpyridin-3-yl)methoxy)-4-(((1-carboxy-2-hydroxyethyl)amino)methyl)-2-chlorophenoxy)methyl)-2,2′-dimethyl-[1,1′-biphenyl]-3-yl)oxy)propyl)-4-hydroxypiperidine-4-carboxylic Acid] | 8.00 to 9.68
6 | Cc1c(COc2cc(OCc3cncc(C#N)c3)c(CN[C@H](CO)C(=O)O)cc2Cl)cccc1-c1cccc(OCCCN2CCC(O)(C(=O)O)CC2)c1C [Example 1036, (R)-1-(3-((3′-((4-(((1-carboxy-2-hydroxyethyl)amino)methyl)-2-chloro-5-((5-cyanopyridin-3-yl)methoxy)phenoxy)methyl)-2,2′-dimethyl-[1,1′-biphenyl]-3-yl)oxy)propyl)-4-hydroxypiperidine-4-carboxylic Acid] | 8.00 to 9.68
7 | Cc1c(COc2cc(OCc3cncc(C#N)c3)c(CN[C@](C)(CO)C(=O)O)cc2Cl)cccc1-c1cccc(OCCCN2CCC(O)(C(=O)O)CC2)c1C [Example 1037, (R)-1-(3-((3′-((4-(((2-carboxy-1-hydroxypropan-2-yl)amino)methyl)-2-chloro-5-((5-cyanopyridin-3-yl)methoxy)phenoxy)methyl)-2,2′-dimethyl-[1,1′-biphenyl]-3-yl)oxy)propyl)-4-hydroxypiperidine-4-carboxylic Acid] | 8.00 to 9.68
8 | COC(=O)C1(O)CCN(CCCOc2cccc(-c3cccc(COc4cc(OCc5cncc(S(C)(=O)=O)c5)c(CN[C@H](CO)C(=O)O)cc4Cl)c3C)c2C)CC1 [Example 1038, (R)-2-((5-chloro-4-((3′-(3-(4-hydroxy-4-(methoxycarbonyl)piperidin-1-yl)propoxy)-2,2′-dimethyl-[1,1′-biphenyl]-3-yl)methoxy)-2-((5-(methylsulfonyl)pyridin-3-yl)methoxy)benzyl)amino)-3-hydroxypropanoic Acid] | 8.00 to 9.68
9 | COC(=O)C1(O)CCN(CCCOc2cccc(-c3cccc(COc4cc(OCc5cncc(S(C)(=O)=O)c5)c(CN[C@@](C)(CO)C(=O)O)cc4Cl)c3C)c2C)CC1 [Example 1039, (S)-2-((5-chloro-4-((3′-(3-(4-hydroxy-4-(methoxycarbonyl)piperidin-1-yl)propoxy)-2,2′-dimethyl-[1,1′-biphenyl]-3-yl)methoxy)-2-((5-(methylsulfonyl)pyridin-3-yl)methoxy)benzyl)amino)-3-hydroxy-2-methylpropanoic Acid] | 8.00 to 9.68
10 | Cc1c(COc2cc(OCc3cncc(S(C)(=O)=O)c3)c(CN[C@H](CO)C(=O)O)cc2Cl)cccc1-c1cccc(OCCCN2CCC(O)(C(=O)O)CC2)c1C [Example 1040, (R)-1-(3-((3′-((4-(((1-carboxy-2-hydroxyethyl)amino)methyl)-2-chloro-5-((5-(methylsulfonyl)pyridin-3-yl)methoxy)phenoxy)methyl)-2,2′-dimethyl-[1,1′-biphenyl]-3-yl)oxy)propyl)-4-hydroxypiperidine-4-carboxylic Acid] | 8.00 to 9.68
11 | Cc1c(COc2cc(OCc3cncc(S(C)(=O)=O)c3)c(CN[C@@](C)(CO)C(=O)O)cc2Cl)cccc1-c1cccc(OCCCN2CCC(O)(C(=O)O)CC2)c1C [Example 1041, (S)-1-(3-((3′-((4-(((2-carboxy-1-hydroxypropan-2-yl)amino)methyl)-2-chloro-5-((5-(methylsulfonyl)pyridin-3-yl)methoxy)phenoxy)methyl)-2,2′-dimethyl-[1,1′-biphenyl]-3-yl)oxy)propyl)-4-hydroxypiperidine-4-carboxylic Acid] | 8.00 to 9.68
12 | Cc1c(COc2cc(OCc3cncc(C#N)c3)c(CN[C@H](CO)C(=O)O)cc2Cl)cccc1-c1cccc(OC[C@@H]2CCCN3CCCC[C@H]23)c1C [Example 1042, (R)-2-((5-chloro-2-((5-cyanopyridin-3-yl)methoxy)-4-((2,2′-dimethyl-3′-(((1R,9aR)-octahydro-1H-quinolizin-1-yl)methoxy)-[1,1′-biphenyl]-3-yl)methoxy)benzyl)amino)-3-hydroxypropanoic Acid] | 8.00 to 9.68

The next lines start with the values.

Row | pIC50 | Compound
13 | 8.00 to 9.68 | Cc1c(COc2cc(OCc3cncc(S(C)(=O)=O)c3)c(CN[C@H](CO)C(=O)O)cc2Cl)cccc1-c1cccc(OCCCN2CC[C@@H](O)C2)c1 [Example 1023, (R)-2-((5-chloro-4-((3′-(3-((R)-3-hydroxypyrrolidin-1-yl)propoxy)-2-methyl-[1,1′-biphenyl]-3-yl)methoxy)-2-((5-(methylsulfonyl)pyridin-3-yl)methoxy)benzyl)amino)-3-hydroxypropanoic Acid]
14 | 8.00 to 9.68 | Cc1c(COc2cc(OCc3cncc(S(C)(=O)=O)c3)c(CN[C@@](C)(CO)C(=O)O)cc2Cl)cccc1-c1cccc(OCCCN2CC[C@@H](O)C2)c1 [Example 1024, (S)-2-((5-chloro-4-((3′-(3-((R)-3-hydroxypyrrolidin-1-yl)propoxy)-2-methyl-[1,1′-biphenyl]-3-yl)methoxy)-2-((5-(methylsulfonyl)pyridin-3-yl)methoxy)benzyl)amino)-3-hydroxy-2-methylpropanoic Acid]
15 | 8.00 to 9.68 | Cc1c(COc2cc(OCc3cncc(S(C)(=O)=O)c3)c(CN[C@H](CO)C(=O)O)cc2Cl)cccc1-c1cccc(OCCCN2CC[C@@H](O)C2)c1C [Example 1025, (R)-2-((5-chloro-4-((3′-(3-((R)-3-hydroxypyrrolidin-1-yl)propoxy)-2,2′-dimethyl-[1,1′-biphenyl]-3-yl)methoxy)-2-((5-(methylsulfonyl)pyridin-3-yl)methoxy)benzyl)amino)-3-hydroxypropanoic Acid]
16 | 8.00 to 9.68 | Cc1c(COc2cc(OCc3cncc(S(C)(=O)=O)c3)c(CN[C@](C)(CO)C(=O)O)cc2Cl)cccc1-c1cccc(OCCCN2CC[C@@H](O)C2)c1C [Example 1026, (R)-2-((5-chloro-4-((3′-(3-((R)-3-hydroxypyrrolidin-1-yl)propoxy)-2,2′-dimethyl-[1,1′-biphenyl]-3-yl)methoxy)-2-((5-(methylsulfonyl)pyridin-3-yl)methoxy)benzyl)amino)-3-hydroxy-2-methylpropanoic Acid]
17 | 8.00 to 9.68 | Cc1c(COc2cc(OCc3cncc(S(C)(=O)=O)c3)c(CN3CCCC[C@H]3C(=O)O)cc2Cl)cccc1-c1cccc(OCCCN2CC[C@@H](O)C2)c1C [Example 1027, (S)-1-(5-chloro-4-((3′-(3-((R)-3-hydroxypyrrolidin-1-yl)propoxy)-2,2′-dimethyl-[1,1′-biphenyl]-3-yl)methoxy)-2-((5-(methylsulfonyl)pyridin-3-yl)methoxy)benzyl)piperidine-2-carboxylic Acid]
18 | 8.00 to 9.68 | COC(=O)C1(O)CCN(CCCOc2cccc(-c3cccc(COc4cc(OCc5cncc(C#N)c5)c(CN[C@H](CO)C(=O)O)cc4Cl)c3C)c2)CC1 [Example 1028, (R)-2-((5-chloro-2-((5-cyanopyridin-3-yl)methoxy)-4-((3′-(3-(4-hydroxy-4-(methoxycarbonyl)piperidin-1-yl)propoxy)-2-methyl-[1,1′-biphenyl]-3-yl)methoxy)benzyl)amino)-3-hydroxypropanoic Acid]
19 | 8.00 to 9.68 | COC(=O)C1(O)CCN(CCCOc2cccc(-c3cccc(COc4cc(OCc5cncc(C#N)c5)c(CN[C@H](CO)C(=O)O)cc4Cl)c3C)c2C)CC1 [Example 1029, (R)-2-((5-chloro-2-((5-cyanopyridin-3-yl)methoxy)-4-((3′-(3-(4-hydroxy-4-(methoxycarbonyl)piperidin-1-yl)propoxy)-2,2′-dimethyl-[1,1′-biphenyl]-3-yl)methoxy)benzyl)amino)-3-hydroxypropanoic Acid]
20 | 8.00 to 9.68 | COC(=O)C1(O)CCN(CCCOc2cccc(-c3cccc(COc4cc(OCc5cncc(C#N)c5)c(CN[C@](C)(CO)C(=O)O)cc4Cl)c3C)c2C)CC1 [Example 1030, (R)-2-((5-chloro-2-((5-cyanopyridin-3-yl)methoxy)-4-((3′-(3-(4-hydroxy-4-(methoxycarbonyl)piperidin-1-yl)propoxy)-2,2′-dimethyl-[1,1′-biphenyl]-3-yl)methoxy)benzyl)amino)-3-hydroxy-2-methylpropanoic Acid]
